PubChem BioAssay (NCI)
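Where inhibition never reached the appropriate level, the endpoint shown equals the highest concentration tested. Otherwise, values were interpolated linearly from a five-concentration, 48-hour dose response in 96-well plates. TGI is the concentration that stops growth completely.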

Key:
Assay in all cases: inhibition of tumour cell growth, NCI panel, 48 h
786-0 renal = tested on: 786-0 renal
A498 renal = tested on: A498 renal
A549 NSCLC = tested on: A549 NSCLC
ACHN renal = tested on: ACHN renal
BT-549 breast = tested on: BT-549 breast
CAKI-1 renal = tested on: CAKI-1 renal
CCRF-CEM leukemia = tested on: CCRF-CEM leukemia
COLO 205 colon = tested on: COLO 205 colon
DU-145 prostate = tested on: DU-145 prostate
EKVX NSCLC = tested on: EKVX NSCLC
HCC-2998 colon = tested on: HCC-2998 colon
HCT-116 colon = tested on: HCT-116 colon
HCT-15 colon = tested on: HCT-15 colon
HL-60(TB) leukemia = tested on: HL-60(TB) leukemia
HOP-62 NSCLC = tested on: HOP-62 NSCLC
HOP-92 NSCLC = tested on: HOP-92 NSCLC
HS 578T breast = tested on: HS 578T breast
HT29 colon = tested on: HT29 colon
IGROV1 ovarian = tested on: IGROV1 ovarian
K-562 leukemia = tested on: K-562 leukemia
KM12 colon = tested on: KM12 colon
LOX IMVI melanoma = tested on: LOX IMVI melanoma
M14 melanoma = tested on: M14 melanoma
MALME-3M melanoma = tested on: MALME-3M melanoma
MCF7 breast = tested on: MCF7 breast
MDA-MB-231 breast = tested on: MDA-MB-231 breast
MDA-MB-435 = tested on: MDA-MB-435
MDA-N = tested on: MDA-N
MOLT-4 leukemia = tested on: MOLT-4 leukemia
NCI-H226 lung = tested on: NCI-H226 lung
NCI-H23 lung = tested on: NCI-H23 lung
NCI-H460 lung = tested on: NCI-H460 lung
NCI-H522 lung = tested on: NCI-H522 lung
NCI/ADR-RES ovarian = tested on: NCI/ADR-RES ovarian
OVCAR-3 ovarian = tested on: OVCAR-3 ovarian
OVCAR-4 ovarian = tested on: OVCAR-4 ovarian
OVCAR-5 ovarian = tested on: OVCAR-5 ovarian
OVCAR-8 ovarian = tested on: OVCAR-8 ovarian
PC-3 prostate = tested on: PC-3 prostate
RPMI-8226 leukemia = tested on: RPMI-8226 leukemia
RXF 393 renal = tested on: RXF 393 renal
SF-268 CNS = tested on: SF-268 CNS
SF-295 CNS = tested on: SF-295 CNS
SF-539 CNS = tested on: SF-539 CNS
SK-MEL-2 melanoma = tested on: SK-MEL-2 melanoma
SK-MEL-28 melanoma = tested on: SK-MEL-28 melanoma
SK-MEL-5 melanoma = tested on: SK-MEL-5 melanoma
SK-OV-3 ovarian = tested on: SK-OV-3 ovarian
SN12C renal = tested on: SN12C renal
SNB-19 CNS = tested on: SNB-19 CNS
SNB-75 CNS = tested on: SNB-75 CNS
SR leukemia = tested on: SR leukemia
SW-620 colon = tested on: SW-620 colon
T-47D breast = tested on: T-47D breast
TK-10 renal = tested on: TK-10 renal
U251 CNS = tested on: U251 CNS
UACC-257 melanoma = tested on: UACC-257 melanoma
UACC-62 melanoma = tested on: UACC-62 melanoma
UO-31 renal = tested on: UO-31 renal

O=C1c2ccccc2C2CNC1(O)c1ccccc12 (stereo not drawn)
TGI (786-0 renal): > 100 µM | TGI (A498 renal): > 100 µM | TGI (A549 NSCLC): > 100 µM | TGI (ACHN renal): > 100 µM | TGI (BT-549 breast): > 100 µM | TGI (CAKI-1 renal): > 100 µM | TGI (CCRF-CEM leukemia): > 100 µM | TGI (COLO 205 colon): > 100 µM | TGI (DU-145 prostate): > 100 µM | TGI (EKVX NSCLC): > 100 µM | TGI (HCC-2998 colon): > 100 µM | TGI (HCT-116 colon): > 100 µM | TGI (HCT-15 colon): > 100 µM | TGI (HL-60(TB) leukemia): > 100 µM | TGI (HOP-62 NSCLC): > 100 µM | TGI (HOP-92 NSCLC): > 100 µM | TGI (HS 578T breast): > 100 µM | TGI (HT29 colon): > 100 µM | TGI (IGROV1 ovarian): > 100 µM | TGI (K-562 leukemia): > 100 µM | TGI (KM12 colon): > 100 µM | TGI (LOX IMVI melanoma): > 100 µM | TGI (M14 melanoma): > 100 µM | TGI (MALME-3M melanoma): > 100 µM | TGI (MCF7 breast): > 100 µM | TGI (MDA-MB-231 breast): > 100 µM | TGI (MDA-MB-435): > 100 µM | TGI (MDA-N): > 100 µM | TGI (MOLT-4 leukemia): > 100 µM | TGI (NCI-H226 lung): > 100 µM | TGI (NCI-H23 lung): > 100 µM | TGI (NCI-H460 lung): > 100 µM | TGI (NCI-H522 lung): > 100 µM | TGI (NCI/ADR-RES ovarian): > 100 µM | TGI (OVCAR-3 ovarian): > 100 µM | TGI (OVCAR-4 ovarian): > 100 µM | TGI (OVCAR-5 ovarian): > 100 µM | TGI (OVCAR-8 ovarian): > 100 µM | TGI (PC-3 prostate): > 100 µM | TGI (RPMI-8226 leukemia): > 100 µM | TGI (RXF 393 renal): > 100 µM | TGI (SF-268 CNS): > 100 µM | TGI (SF-295 CNS): > 100 µM | TGI (SF-539 CNS): > 100 µM | TGI (SK-MEL-2 melanoma): > 100 µM | TGI (SK-MEL-28 melanoma): > 100 µM | TGI (SK-MEL-5 melanoma): > 100 µM | TGI (SK-OV-3 ovarian): > 100 µM | TGI (SN12C renal): > 100 µM | TGI (SNB-19 CNS): > 100 µM | TGI (SNB-75 CNS): > 100 µM | TGI (SR leukemia): > 100 µM | TGI (SW-620 colon): > 100 µM | TGI (T-47D breast): > 100 µM | TGI (TK-10 renal): > 100 µM | TGI (U251 CNS): > 100 µM | TGI (UACC-257 melanoma): > 100 µM | TGI (UACC-62 melanoma): > 100 µM | TGI (UO-31 renal): > 100 µM

Nc1nc(Cl)cc(NCC2(O)CC(CO)C2)n1 (stereo not drawn)
TGI (786-0 renal): > 100 µM | TGI (A498 renal): > 100 µM | TGI (A549 NSCLC): > 100 µM | TGI (ACHN renal): > 100 µM | TGI (BT-549 breast): > 100 µM | TGI (CAKI-1 renal): > 100 µM | TGI (CCRF-CEM leukemia): > 100 µM | TGI (COLO 205 colon): > 100 µM | TGI (DU-145 prostate): > 100 µM | TGI (EKVX NSCLC): > 100 µM | TGI (HCC-2998 colon): > 100 µM | TGI (HCT-116 colon): > 100 µM | TGI (HCT-15 colon): > 100 µM | TGI (HL-60(TB) leukemia): > 100 µM | TGI (HOP-62 NSCLC): > 100 µM | TGI (HOP-92 NSCLC): > 100 µM | TGI (HS 578T breast): > 100 µM | TGI (HT29 colon): > 100 µM | TGI (IGROV1 ovarian): > 100 µM | TGI (K-562 leukemia): > 100 µM | TGI (KM12 colon): > 100 µM | TGI (LOX IMVI melanoma): > 100 µM | TGI (MALME-3M melanoma): > 100 µM | TGI (MCF7 breast): > 100 µM | TGI (MDA-MB-231 breast): > 100 µM | TGI (MDA-MB-435): > 100 µM | TGI (MDA-N): > 100 µM | TGI (MOLT-4 leukemia): > 100 µM | TGI (NCI-H226 lung): > 100 µM | TGI (NCI-H23 lung): > 100 µM | TGI (NCI-H460 lung): > 100 µM | TGI (NCI-H522 lung): > 100 µM | TGI (NCI/ADR-RES ovarian): > 100 µM | TGI (OVCAR-3 ovarian): > 100 µM | TGI (OVCAR-4 ovarian): > 100 µM | TGI (OVCAR-5 ovarian): > 100 µM | TGI (OVCAR-8 ovarian): > 100 µM | TGI (PC-3 prostate): > 100 µM | TGI (RPMI-8226 leukemia): > 100 µM | TGI (RXF 393 renal): > 100 µM | TGI (SF-268 CNS): > 100 µM | TGI (SF-295 CNS): > 100 µM | TGI (SF-539 CNS): > 100 µM | TGI (SK-MEL-2 melanoma): > 100 µM | TGI (SK-MEL-28 melanoma): > 100 µM | TGI (SK-MEL-5 melanoma): > 100 µM | TGI (SK-OV-3 ovarian): > 100 µM | TGI (SN12C renal): > 100 µM | TGI (SNB-19 CNS): > 100 µM | TGI (SNB-75 CNS): > 100 µM | TGI (SR leukemia): > 100 µM | TGI (SW-620 colon): > 100 µM | TGI (T-47D breast): > 100 µM | TGI (TK-10 renal): > 100 µM | TGI (U251 CNS): > 100 µM | TGI (UACC-257 melanoma): > 100 µM | TGI (UACC-62 melanoma): > 100 µM | TGI (UO-31 renal): > 100 µM

O=C1C(N2CCCC2)=CC(=O)c2c(O)c(N3CCCC3)c(Cl)c(O)c21
TGI (786-0 renal): > 10 µM | TGI (A498 renal): > 10 µM | TGI (A549 NSCLC): > 10 µM | TGI (ACHN renal): > 10 µM | TGI (BT-549 breast): > 10 µM | TGI (CAKI-1 renal): > 10 µM | TGI (CCRF-CEM leukemia): > 10 µM | TGI (COLO 205 colon): > 10 µM | TGI (DU-145 prostate): > 10 µM | TGI (EKVX NSCLC): > 10 µM | TGI (HCC-2998 colon): > 10 µM | TGI (HCT-116 colon): > 10 µM | TGI (HL-60(TB) leukemia): > 10 µM | TGI (HOP-62 NSCLC): > 10 µM | TGI (HOP-92 NSCLC): > 10 µM | TGI (HS 578T breast): > 10 µM | TGI (HT29 colon): > 10 µM | TGI (IGROV1 ovarian): > 10 µM | TGI (K-562 leukemia): > 10 µM | TGI (KM12 colon): > 10 µM | TGI (LOX IMVI melanoma): > 10 µM | TGI (M14 melanoma): > 10 µM | TGI (MALME-3M melanoma): > 10 µM | TGI (MCF7 breast): > 10 µM | TGI (MDA-MB-231 breast): > 10 µM | TGI (MDA-MB-435): > 10 µM | TGI (MDA-N): > 10 µM | TGI (MOLT-4 leukemia): > 10 µM | TGI (NCI-H226 lung): > 10 µM | TGI (NCI-H23 lung): > 10 µM | TGI (NCI-H460 lung): > 10 µM | TGI (NCI-H522 lung): > 10 µM | TGI (NCI/ADR-RES ovarian): > 10 µM | TGI (OVCAR-3 ovarian): > 10 µM | TGI (OVCAR-4 ovarian): > 10 µM | TGI (PC-3 prostate): > 10 µM | TGI (RPMI-8226 leukemia): > 10 µM | TGI (RXF 393 renal): > 10 µM | TGI (SF-268 CNS): > 10 µM | TGI (SF-295 CNS): > 10 µM | TGI (SF-539 CNS): > 10 µM | TGI (SK-MEL-2 melanoma): > 10 µM | TGI (SK-MEL-28 melanoma): > 10 µM | TGI (SK-MEL-5 melanoma): > 10 µM | TGI (SK-OV-3 ovarian): > 10 µM | TGI (SN12C renal): > 10 µM | TGI (SNB-19 CNS): > 10 µM | TGI (SNB-75 CNS): > 10 µM | TGI (SR leukemia): > 10 µM | TGI (SW-620 colon): > 10 µM | TGI (T-47D breast): > 10 µM | TGI (TK-10 renal): > 10 µM | TGI (U251 CNS): > 10 µM | TGI (UACC-257 melanoma): > 10 µM | TGI (UACC-62 melanoma): > 10 µM | TGI (UO-31 renal): > 10 µM
